Measured values as given in patent publication US9125930B2, “EGFR aptamer inhibitor for use in therapy and diagnosis” (CONSIGLIO NAZIONALE DELLE RICERCHE, priority 2010, dated 2015).

Tests used:
Calu1 cells = assay: Binding on Calu1 cells; parameters: species or system human; conditions: EGFR-positive; 100 nM
Experimental: (§1) Binding experiments were performed with 5′-[^32P]-labeled RNA. For labeling 2′-F-Py RNAs were 5′-end dephosphorylated using bacterial alcaline phosphatase (Invitrogen, Carlsbad, Calif.) before [^32P]-5′-end-labeled using T4 kinase (Invitrogen) and γ-[^32P]-ATP (6×10^3 Ci/mmol, GE Healthcare Bio-Sciences, Uppsala, Sweden) according to the supplier's instructions.
(§2) For binding experiments on cells, 3.5×10^4 cells were plated in 24-well plates in triplicate and were incubated with CL4 42-81 aptamer the scrambled sequence used as a negative control at 100 nM concentration in 200 μl of DMEM serum free for 20 min at RT in the presence of 100 μg/ml polyinosine as a nonspecific competitor (Sigma, St. Louis, Mo.). After five washings with 500 μl DMEM, bound sequences were recovered in 300 μl of SDS 1%, and the amount of radioactivity recovered was counted.

H460 cells = assay: Binding on H460 cells; parameters: species or system human; conditions: low level of EGFR; 100 nM
Experimental: as §1, §2

glioma U87MG = assay: Binding on U87MG cells; parameters: species or system human; conditions: no or very low expression of EGFR; 100 nM
Experimental: as §1, §2

breast SKBR3 = assay: Binding on SKBR3 cells; parameters: species or system human; conditions: high level of EGFR; 100 nM
Experimental: as §1, §2

[1] = target: T1, soluble extracellular domain of human ErbB3 (EC-ErbB3) (Homo sapiens, UniProt P21860); assay: Filter binding on soluble extracellular domain of ErbB3
T1 construct: purchased R&D Systems
Experimental: as §1
The aptamers ability to bind EGFR or ErbB3 soluble extracellular domain (EC-EGFR and EC-ErbB3) was investigated by filter binding by plotting the fraction of RNA bound to the nitrocellulose filter as a function of protein concentration, using the following equation:
[formula] where Bmax is the extrapolated maximal amount of RNA:protein complex that will be bound. 1 nM of radiolabelled aptamers (CL4 42-81 aptamer or the scrambled sequence) were incubated with 1, 3.2, 10, 32, 100, 320 and 1000 nM of EC-EGFR and EC-ErbB3 (all from R&D Systems, Minneapolis, Minn.) for 15 min at 37° in phosphate-buffered saline (PBS) supplemented with 0.01% bovine serum albumin.
In order to test the binding for dimeric and monomeric proteins, 1 nM of radiolabelled aptamers (CL4 42-81 or scrambled) were incubated with 20 nM of EC-EGFR and EC-ErbB3 without or with 5 mM DTT.
After incubation, the aptamer-protein mix was passed through nitrocellulose membrane filter (Millipore Co., Bedford, Mass.) and filters were counted. […]

A431 cells = assay: Cell viability assay, A431 cells; format: cell-based, human
Experimental: Cell viability was assessed with CellTiter 96® AQueous One Solution Cell Proliferation Assay (Promega, Madison, Wis.) according to according to the supplier's instructions. Cells (4×10^3 cells/well) were plated in 96-well plates in triplicate. and were treated for 24 hs with heat denatured CL4 42-81 or the scrambled aptamer at 3 μM concentration. RNA concentrations were determined to ensure the continuous presence of a concentration of at least 200 nM, which takes into account the 6 hs-half life of the aptamer in 10% serum. The optical density (OD) was measured using a Multilabel Counter (Bio-Rad) at a wavelength of 490 nm and cell viability was calculated by the following formula: Cell viability (%)=(OD treated cells/OD control cells)×100%. FACS Analysis

A431 tumors = assay: Tumor growth in A431 mouse xenograft; format: in vivo; conditions: 200 pmoles intratumoral
Experimental: Athymic nude mice (nu/nu) were maintained in a sterile environment according to guidelines for Animal Care. Mice were inoculated with either 3×10^6 (in 100 μl) in vitro propagated A431 cells subcutaneously injected into each flank. Approximately 24 non-necrotic tumors for each tumor type, of about 1 cm in diameter, were randomly divided into three groups of eight mice per treatment group as follows: group 1, no treatment; group 2, treated with scrambled RNA as a negative control (200 pmols/injection); group 3, treated with CL4 42-81 (200 pmols/injection). Compounds were injected intra-tumorally in 100-1 μl volumes three times a week for two weeks. Day 0 marks the first day of injection. The aptamers may also be administered systemically, in particular when optimized by addition of polyethylene glycol (PEG).
The volume injections are small enough to preclude the compounds being forced inside the cells due to a nonspecific high-pressure injection. Tumors were measured every 3 days with calipers in three dimensions. The following formula was used to calculate tumor volume: VT=(W×L×H)×0.5236 (W, the shortest dimension; L, the longest dimension; H, the intermediate dimension). The growth curves are plotted as the means tumor volume±s.e.m. Statistical analysis of tumor size data was conducted using a one-way ANOVA. A P-value of 0.05 or less was considered to indicate a significant difference. […]

caspase-8 = assay: Caspase-8 in A549 xenograft tumor lysates; format: in vivo, mouse; conditions: pooled tumor lysates
Experimental: (§3) FIG. 8. (A) A549 cells (2,000 cells/well in 24-well plates) were treated for 24 h or 48 h with CL4 42-81 or CL4 scrambled (200 nM-final concentration) and proliferation was determined by [^3H]-thymidine incorporation. Vertical bars indicate the standard deviation values. […] Day 0 marks the first day of injection. Data are shown as means±s.e.m. (n=8 tumors). (C) Three tumors per group selected randomly were excised, lysed, and the pooled lysates were immunoblotted with anti-pEGFR, anti-EGFR, anti-caspase-3, anti-cleaved caspase-8 and anti-αtubulin antibodies, as indicated. Molecular weights of indicated proteins are reported. (D) Cell lysates as in (C) were analyzed by caspase-3 fluorimetric assays.
(§4) Athymic CD-1 nude mice (nu/nu) were housed in a highly controlled microbiological environment, thus to guarantee specific pathogen free conditions. Mice were injected subcutaneously with 3×10^6 (in 100 μl) in vitro propagated A549. Sixteen non-necrotic tumors of about 0.5 cm in diameter were randomly divided into two groups of eight mice as follows: group 1, CL4 scrambled-treated; group 2, CL4 42-81-treated. Aptamers (200 pmols/injection) were injected intra-tumorally in 100-1 μl volumes three times a week for 16 days. Tumors were measured every 2 days.

EGFR = EGFR (Homo sapiens, UniProt P00533); assay: Immunoblot of pEGFR in A549 xenograft tumor lysates; format: in vivo, mouse; parameters: from tissue; host or cells: A549 xenograft tumours excised from athymic CD-1 nude mice; conditions: pooled tumor lysates
Experimental: as §3, §4

T1 sequence (P21860 20-643 limits assumed): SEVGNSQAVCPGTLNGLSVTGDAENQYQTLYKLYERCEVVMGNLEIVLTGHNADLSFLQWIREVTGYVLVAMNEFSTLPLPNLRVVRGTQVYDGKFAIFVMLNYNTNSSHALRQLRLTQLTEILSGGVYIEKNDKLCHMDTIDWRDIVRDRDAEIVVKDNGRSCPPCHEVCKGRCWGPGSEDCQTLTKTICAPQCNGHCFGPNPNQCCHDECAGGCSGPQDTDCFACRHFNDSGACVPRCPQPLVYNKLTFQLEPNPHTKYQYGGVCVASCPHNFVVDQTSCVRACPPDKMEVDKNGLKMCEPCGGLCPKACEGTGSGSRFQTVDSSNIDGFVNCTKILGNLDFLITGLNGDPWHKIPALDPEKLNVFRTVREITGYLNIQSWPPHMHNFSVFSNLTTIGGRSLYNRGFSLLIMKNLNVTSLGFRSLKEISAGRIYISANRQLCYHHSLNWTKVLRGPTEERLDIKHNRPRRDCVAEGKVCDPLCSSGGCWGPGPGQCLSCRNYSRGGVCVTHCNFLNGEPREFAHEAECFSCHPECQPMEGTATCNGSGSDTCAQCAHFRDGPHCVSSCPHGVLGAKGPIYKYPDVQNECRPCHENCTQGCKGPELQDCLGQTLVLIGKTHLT

Substance: CL4 42-81: 2′-fluoropyrimidine nuclease-resistant RNA aptamer of 39 nt: 5′ GCCUUAGUAACGUGCUUUGAUGUCGAUUCGACAGGAGGC 3′ (SEQ ID No. 1) (2'-fluoro at CU, RNA at AG, backbone not given here)
- binding on Calu1 cells (Calu1 cells): binds
- binding on H460 cells (H460 cells): does not bind
- binding on U87MG cells (glioma U87MG): does not bind
- binding on SKBR3 cells (breast SKBR3): binds
- affinity for EC-ErbB3, magnitude lower ([1]; does not bind or binds with lower affinity): at least 10^3
- Kd ([1]; filter binding, EC-ErbB3, protein up to 1000 nM): no Kd value could be calculated
- sensitivity of A431 cell viability (A431 cells; 200 nM-final concentration, not shown): same effect
- cell viability (A431 cells; A431, 24 hs, 200 nM final concentration, relative to untreated cells set to 100%): about 60%
- tumor growth from day 9 to day 15 (A431 tumors; three times a week): stopped to grow and was reduced in volume
- tumor volume (A431 tumors; three times a week for two weeks): pronounced reduction in tumor volume
- caspase-8 activation in xenograft tumors (caspase-8): activates
- extent of EGFR tyrosine phosphorylation in xenograft tumors (EGFR): decreases
